From US20250320206A1, “STAT6 DEGRADERS” (Gilead Sciences, Inc., priority 2024, published 2025)

Key:
STAT6 = target: T1, STAT6 (Homo sapiens, UniProt P42226); assay: Stat6 Degrader Assay (HiBiT based, HeLa LgBiT clone 4.14); format: cell-based; conditions: HeLa LgBiT clone 4.14 HiBiT-STAT6, 4-24 h incubation; values given for compounds with >80% Emax; geometric mean; read-out: STAT6 degradation DC50
T1 construct: These cells express endogenous STAT6; host or cells: HeLa LgBiT clone 4.14
T1 sequence (P42226 1-847): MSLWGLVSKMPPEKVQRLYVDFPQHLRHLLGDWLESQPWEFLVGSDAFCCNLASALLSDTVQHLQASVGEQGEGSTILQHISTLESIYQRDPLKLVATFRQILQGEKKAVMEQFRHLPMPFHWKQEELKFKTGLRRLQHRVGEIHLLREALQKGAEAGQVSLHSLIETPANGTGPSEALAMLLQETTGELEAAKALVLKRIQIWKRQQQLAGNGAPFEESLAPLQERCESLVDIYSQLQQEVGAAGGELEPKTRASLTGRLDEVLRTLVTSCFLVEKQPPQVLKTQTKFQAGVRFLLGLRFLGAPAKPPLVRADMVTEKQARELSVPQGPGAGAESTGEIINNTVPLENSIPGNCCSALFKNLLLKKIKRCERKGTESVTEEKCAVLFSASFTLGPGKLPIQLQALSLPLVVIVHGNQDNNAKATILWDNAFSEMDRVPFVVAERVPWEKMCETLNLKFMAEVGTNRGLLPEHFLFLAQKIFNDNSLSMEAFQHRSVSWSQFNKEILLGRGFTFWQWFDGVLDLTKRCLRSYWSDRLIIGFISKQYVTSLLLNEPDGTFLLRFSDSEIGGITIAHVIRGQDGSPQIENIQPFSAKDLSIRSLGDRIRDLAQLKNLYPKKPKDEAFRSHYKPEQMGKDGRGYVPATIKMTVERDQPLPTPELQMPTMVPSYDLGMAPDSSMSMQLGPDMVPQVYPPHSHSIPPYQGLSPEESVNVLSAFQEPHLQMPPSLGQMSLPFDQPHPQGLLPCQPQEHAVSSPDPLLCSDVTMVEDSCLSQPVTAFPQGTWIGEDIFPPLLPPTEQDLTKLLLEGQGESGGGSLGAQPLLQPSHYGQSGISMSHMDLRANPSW
Outline: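 HeLa LgBiT clone 4.14 cells with CRISPR HiBiT-tagged endogenous STAT6, 5000 cells/well, compound dosed then incubated 4-24 h at 37° C, 5% CO2. Nano-Glo substrate added, 0.5 h, luminescence read as non-degraded STAT6. Terfenadine 50 μM (cell kill) defines 100% degradation.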

[1] = system: Eotaxin-3 release in human whole blood stimulated with IL-4; assay: Human Whole Blood Eotaxin-3 Assay (IL-4 stimulated eotaxin-3 release); format: cell-based; conditions: IL-4 stimulation, 48 h, values given for compounds with >80% Emax, geometric mean
Outline: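 Lithium-heparin human whole blood preincubated 2 h at 37° C with 4-fold serially diluted compounds (0.5% DMSO), then stimulated with recombinant human IL-4 ([…]) for 48 h. Eotaxin-3 (CCL26) in supernatant quantified by MSD immunoassay.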

A DC50 (STAT6) of 2.6 nM and an EC50 [1] of 0.8 nM were found for `CNc1ccn(-c2ccnc3c2cc(CN2CCC(c4c(F)cc(C(=O)N5CCC(CN6CCN(Cc7ccc8c(c7)n(C7CC7)c(=O)n8[C@@H]7CCC(=O)NC7=O)C[C@@H]6C)CC5)cc4F)CC2)n3C)c(=O)c1` (single isomer, unassigned) [Example 3u218] in this work.

A DC50 (STAT6) of 0.4 nM and an EC50 [1] of 0.2 nM were found for `CNc1ccn(-c2ccnc3c2cc([C@H](C)N2CC=C(c4c(C)cc(C(=O)N5CCn6nc(CN7CCC(c8ccc9c(c8)n(C8CC8)c(=O)n9C8CCC(=O)NC8=O)CC7)cc6C5)cc4F)CC2)n3C)c(=O)c1` (stereo partly drawn) [Example 3u254, 3-(3-cyclopropyl-5-(1-((5-(3-fluoro-5-methyl-4-(1-((S)-1-(1-methyl-4-(4-(methylamino)-2-oxopyridin-1 (2H)-yl)-1H-pyrrolo[2,3-b]pyridin-2-yl)ethyl)-1,2,3,6-tetrahydropyridin-4-yl)benzoyl)-4,5,6,7-tetrahydropyrazolo[1,5-a]pyrazin-2-yl)methyl)piperidin-4-yl)-2-oxo-2,3-dihydro-1H-benzo[d]imidazol-1-yl)piperidine-2,6-dione] in this work.

A DC50 (STAT6) of 18.6 nM and an EC50 [1] of 12.4 nM were found for `CNc1cc(=O)n(-c2ccnc3c2cc(CN2CCC(c4c(F)cc(C(=O)N5CCC(CN6CCN(Cc7cc8c(cc7F)N([C@@H]7CCC(=O)NC7=O)C(=O)C87CC7)CC6)CC5)cc4F)CC2)n3C)cc1F` (single isomer, unassigned) [Example 3u95] in this work.

A DC50 (STAT6) of 1.2 nM and an EC50 [1] of 0.6 nM were found for `CNc1ccn(-c2ccnc3c2cc([C@H](C)N2CC=C(c4c(C)cc(C(=O)N5CCC(CN6CCN(Cc7ccc8c(c7)n(C7CC7)c(=O)n8C7CCC(=O)NC7=O)CC6)CC5)cc4F)CC2)n3C)c(=O)c1` (stereo partly drawn) [Example 3u122, 3-(3-cyclopropyl-5-((4-((1-(3-fluoro-5-methyl-4-(1-((S)-1-(1-methyl-4-(4-(methylamino)-2-oxopyridin-1 (2H)-yl)-1H-pyrrolo[2,3-b]pyridin-2-yl)ethyl)-1,2,3,6-tetrahydropyridin-4-yl)benzoyl)piperidin-4-yl)methyl)piperazin-1-yl)methyl)-2-oxo-2,3-dihydro-1H-benzo[d]imidazol-1-yl)piperidine-2,6-dione] in this work.

A DC50 (STAT6) of 11.2 nM and an EC50 [1] of 7.7 nM were found for `CNc1cc(=O)n(-c2ccnc3c2cc(CN2CCC(c4c(F)cc(C(=O)N5CCC(CN6CCN(Cc7ccc8c(c7)C(C)(C)C(=O)N8C7CCC(=O)NC7=O)C[C@@H]6C)CC5)cc4F)CC2)n3C)cc1F` (stereo partly drawn) [Example 3u48, 3-(5-(((S)-4-((1-(3,5-difluoro-4-(1-((4-(5-fluoro-4-(methylamino)-2-oxopyridin-1 (2H)-yl)-1-methyl-1H-pyrrolo[2,3-b]pyridin-2-yl)methyl)piperidin-4-yl)benzoyl)piperidin-4-yl)methyl)-3-methylpiperazin-1-yl)methyl)-3,3-dimethyl-2-oxoindolin-1-yl)piperidine-2,6-dione] in this work.

A DC50 (STAT6) of 0.9 nM and an EC50 [1] of 1.3 nM were found for `CNc1ccn(-c2ccnc3c2cc(CN2CCC(c4c(F)cc(C(=O)N5CCC(CN6CCN(Cc7ccc8c(c7)C7(CC7)C(=O)N8[C@H]7CCC(=O)NC7=O)C[C@@H]6C)CC5)cc4F)CC2)n3C)c(=O)c1` (single isomer, unassigned) [Example 3u223] in this work.

A DC50 (STAT6) of 1 nM and an EC50 [1] of 3.7 nM were found for `CNc1cc(=O)n(-c2ccnc3c2cc([C@H](C)N2CC=C(c4c(C)cc(C(=O)N5CCC(CN6CCN(Cc7ccc8c(c7)n(C7CC7)c(=O)n8[C@@H]7CCC(=O)NC7=O)C[C@@H]6C)CC5)cc4F)CC2)n3C)cc1F` (single isomer, unassigned) [Example 3u120] in this work.

A DC50 (STAT6) of 0.7 nM and an EC50 [1] of 0.4 nM were found for `CNc1ccn(-c2ccnc3c2cc([C@H](C)N2CC=C(c4c(C)cc(C(=O)N5CCC(CN6CCN(c7cc8c(cc7F)n(C7CCC(=O)NC7=O)c(=O)n8C)CC6)CC5)cc4F)CC2)n3C)c(=O)c1` (stereo partly drawn) [Example 3u310, 3-(6-fluoro-5-(4-((1-(3-fluoro-5-methyl-4-(1-((S)-1-(1-methyl-4-(4-(methylamino)-2-oxopyridin-1 (2H)-yl)-1H-pyrrolo[2,3-b]pyridin-2-yl)ethyl)-1,2,3,6-tetrahydropyridin-4-yl)benzoyl)-piperidin-4-yl)methyl)piperazin-1-yl)-3-methyl-2-oxo-2,3-dihydro-1H-benzo[d]imidazol-1-yl)-piperidine-2,6-dione] in this work.

A DC50 (STAT6) of 7.5 nM and an EC50 [1] of 0.8 nM were found for `CNc1ccn(-c2ccnc3c2cc([C@H](C)N2CC=C(c4c(F)cc(C(=O)N5CCC(CN6CCN(Cc7ccc8c(c7)n(C7CC7)c(=O)n8[C@@H]7CCC(=O)NC7=O)C[C@@H]6C)CC5)cc4F)CC2)n3C)c(=O)c1` (single isomer, unassigned) [Example 3u212] in this work.

A DC50 (STAT6) of 4.3 nM and an EC50 [1] of 2.3 nM were found for `Cc1cc(C(=O)N2CCC(CN3CCN(Cc4ccc5c(c4)n(C)c(=O)n5C4CCC(=O)NC4=O)C[C@@H]3C)CC2)cc(F)c1C1CCN(Cc2cc3c(-n4ccc5c(c4=O)CCN5)ccnc3n2C)CC1` (stereo partly drawn) [Example 3u39, 3-(5-(((S)-4-((1-(3-fluoro-5-methyl-4-(1-((1-methyl-4-(4-oxo-1,2,3,4-tetrahydro-5H-pyrrolo[3,2-c]pyridin-5-yl)-1H-pyrrolo[2,3-b]pyridin-2-yl)methyl)piperidin-4-yl)benzoyl)piperidin-4-yl)methyl)-3-methylpiperazin-1-yl)methyl)-3-methyl-2-oxo-2,3-dihydro-1H-benzo[d]imidazol-1-yl)piperidine-2,6-dione] in this work.

A DC50 (STAT6) of 0.5 nM and an EC50 [1] of 0.9 nM were found for `CNc1ccn(-c2ccnc3c2cc([C@H](C)N2CC=C(c4c(C)cc(C(=O)N5CCC(CN6CCN(Cc7ccc8c(c7)C7(CC7)C(=O)N8C7CCC(=O)NC7=O)C[C@@H]6C)CC5)cc4F)CC2)n3C)c(=O)c1` (mixture of isomers) [Example 3u190, 3-(5′-(((S)-4-((1-(3-fluoro-5-methyl-4-(1-((S)-1-(1-methyl-4-(4-(methylamino)-2-oxopyridin-1 (2H)-yl)-1H-pyrrolo[2,3-b]pyridin-2-yl)ethyl)-1,2,3,6-tetrahydropyridin-4-yl)benzoyl)piperidin-4-yl)methyl)-3-methylpiperazin-1-yl)methyl)-2′-oxospiro[cyclopropane-1,3′-indolin]-1′-yl)piperidine-2,6-dione] in this work.

A DC50 (STAT6) of 3.4 nM and an EC50 [1] of 5.2 nM were found for `CNc1ccn(-c2ccnc3c2cc([C@H](C)N2CC=C(c4c(F)cc(C(=O)N5CCC(CN6CCN(Cc7ccc8c(c7)C(C)(C)C(=O)N8[C@@H]7CCC(=O)NC7=O)C[C@@H]6C)CC5)cc4F)CC2)n3C)c(=O)c1` (single isomer, unassigned) [Example 3u203] in this work.

A DC50 (STAT6) of 0.1 nM and an EC50 [1] of 1.7 nM were found for `CNc1cc(=O)n(-c2ccnc3c2cc([C@H](C)N2CC=C(c4c(C)cc(C(=O)N(C)c5ccc(N6CCN(Cc7ccc8c(c7)n(C)c(=O)n8C7CCC(=O)NC7=O)CC6)nc5)cc4F)CC2)n3C)cc1F` (stereo partly drawn) [Example 3u237, N-(6-(4-((1-(2,6-dioxopiperidin-3-yl)-3-methyl-2-oxo-2,3-dihydro-1H-benzo[d]-imidazol-5-yl)methyl)piperazin-1-yl)pyridin-3-yl)-3-fluoro-4-(1-((S)-1-(4-(5-fluoro-4-(methylamino)-2-oxopyridin-1 (2H)-yl)-1-methyl-1H-pyrrolo[2,3-b]pyridin-2-yl)ethyl)-1,2,3,6-tetrahydropyridin-4-yl)-N,5-dimethylbenzamide] in this work.

A DC50 (STAT6) of 3.5 nM and an EC50 [1] of 15.4 nM were found for `Cc1cc(C(=O)N2CCC(CN3CCN(Cc4ccc5c(c4)C(C)(C)C(=O)N5[C@@H]4CCC(=O)NC4=O)C[C@@H]3C)CC2)cc(F)c1C1=CCN([C@@H](C)c2cc3c(-n4cc(F)c(N)cc4=O)ccnc3n2C)CC1` (single isomer, unassigned) [Example 3u171] in this work.

A DC50 (STAT6) of 1.6 nM and an EC50 [1] of 2.2 nM were found for `CNc1ccn(-c2ccnc3c2cc([C@H](C)N2CC=C(c4c(C)cc(C(=O)N5CCC(CN6CCN(Cc7cc8c(cc7F)N([C@@H]7CCC(=O)NC7=O)C(=O)C87CC7)C[C@@H]6C)CC5)cc4F)CC2)n3C)c(=O)c1` (single isomer, unassigned) [Example 3u195] in this work.
